Numbers after ± are expanded uncertainties.
Assay: osmotic coefficient (dimensionless); mn = molality of the nth substance listed, in mol/kg
Details: 323.15 K, 101 kPa, Liquid, isopiestic method

CCCC[n+]1cccc(C)c1.O=S(=O)([N-]S(=O)(=O)C(F)(F)F)C(F)(F)F + CCC(C)O
Details	osmotic coefficient
m1 = 0.0527	0.735 ± 0.013
m1 = 0.0838	0.623 ± 0.019
m1 = 0.1035	0.581 ± 0.021
m1 = 0.2136	0.45 ± 0.028
m1 = 0.3113	0.379 ± 0.031
m1 = 0.411	0.337 ± 0.033
m1 = 0.5068	0.292 ± 0.035
m1 = 0.7963	0.235 ± 0.038
m1 = 1.217	0.195 ± 0.04
m1 = 1.576	0.171 ± 0.041
m1 = 2.032	0.149 ± 0.043
m1 = 2.408	0.135 ± 0.043
m1 = 2.799	0.126 ± 0.044
m1 = 3.261	0.119 ± 0.044

CCCC[n+]1cccc(C)c1.O=S(=O)([N-]S(=O)(=O)C(F)(F)F)C(F)(F)F + CCCO
Details	osmotic coefficient
m1 = 0.0318	0.917 ± 0.004
m1 = 0.0485	0.78 ± 0.011
m1 = 0.0788	0.72 ± 0.014
m1 = 0.2157	0.571 ± 0.021
m1 = 0.3181	0.487 ± 0.026
m1 = 0.417	0.44 ± 0.028
m1 = 0.527	0.389 ± 0.031
m1 = 0.8342	0.324 ± 0.034
m1 = 1.24	0.274 ± 0.036
m1 = 1.63	0.229 ± 0.039
m1 = 2.053	0.203 ± 0.04
m1 = 2.439	0.191 ± 0.04
m1 = 2.768	0.182 ± 0.041
m1 = 3.304	0.174 ± 0.041

CCC[n+]1cccc(C)c1.O=S(=O)([N-]S(=O)(=O)C(F)(F)F)C(F)(F)F + CC(C)O
Details	osmotic coefficient
m1 = 0.0497	0.974 ± 0.001
m1 = 0.0805	0.806 ± 0.01
m1 = 0.1081	0.756 ± 0.012
m1 = 0.1987	0.632 ± 0.018
m1 = 0.2986	0.508 ± 0.025
m1 = 0.41	0.415 ± 0.029
m1 = 0.5278	0.379 ± 0.031
m1 = 0.8355	0.334 ± 0.033
m1 = 1.221	0.281 ± 0.036
m1 = 1.623	0.24 ± 0.038
m1 = 2.072	0.217 ± 0.039
m1 = 2.437	0.206 ± 0.04
m1 = 2.828	0.191 ± 0.04
m1 = 3.326	0.184 ± 0.041

CCCC[n+]1cccc(C)c1.O=S(=O)([N-]S(=O)(=O)C(F)(F)F)C(F)(F)F + CC(C)O
Details	osmotic coefficient
m1 = 0.0504	0.909 ± 0.005
m1 = 0.0795	0.805 ± 0.01
m1 = 0.0981	0.729 ± 0.014
m1 = 0.2086	0.596 ± 0.02
m1 = 0.2979	0.536 ± 0.023
m1 = 0.3949	0.498 ± 0.025
m1 = 0.4981	0.454 ± 0.027
m1 = 0.7859	0.384 ± 0.031
m1 = 1.188	0.321 ± 0.034
m1 = 1.583	0.266 ± 0.037
m1 = 1.975	0.244 ± 0.038
m1 = 2.381	0.233 ± 0.038
m1 = 2.763	0.234 ± 0.038
m1 = 3.323	0.225 ± 0.039

CC[n+]1cccc(C)c1.O=S(=O)([N-]S(=O)(=O)C(F)(F)F)C(F)(F)F + CC(C)O
Details	osmotic coefficient
m1 = 0.049	0.951 ± 0.003
m1 = 0.0748	0.834 ± 0.008
m1 = 0.0982	0.752 ± 0.012
m1 = 0.2129	0.605 ± 0.02
m1 = 0.3058	0.529 ± 0.024
m1 = 0.404	0.464 ± 0.027
m1 = 0.5051	0.428 ± 0.029
m1 = 0.8164	0.335 ± 0.033
m1 = 1.211	0.274 ± 0.036
m1 = 1.625	0.233 ± 0.038
m1 = 2.011	0.21 ± 0.04
m1 = 2.415	0.19 ± 0.041
m1 = 2.847	0.176 ± 0.041
m1 = 3.335	0.174 ± 0.041

CCCC[n+]1cccc(C)c1.O=S(=O)([N-]S(=O)(=O)C(F)(F)F)C(F)(F)F + CCCCO
Details	osmotic coefficient
m1 = 0.0539	0.692 ± 0.015
m1 = 0.082	0.581 ± 0.021
m1 = 0.1023	0.508 ± 0.025
m1 = 0.1892	0.403 ± 0.03
m1 = 0.3045	0.305 ± 0.035
m1 = 0.4112	0.259 ± 0.037
m1 = 0.5115	0.238 ± 0.038
m1 = 0.8265	0.203 ± 0.04
m1 = 1.232	0.179 ± 0.041
m1 = 1.58	0.155 ± 0.042
m1 = 2.087	0.132 ± 0.043
m1 = 2.466	0.12 ± 0.044
m1 = 2.878	0.112 ± 0.044
m1 = 3.434	0.102 ± 0.045

CC[n+]1cccc(C)c1.O=S(=O)([N-]S(=O)(=O)C(F)(F)F)C(F)(F)F + CCCO
Details	osmotic coefficient
m1 = 0.0291	0.924 ± 0.004
m1 = 0.0485	0.788 ± 0.011
m1 = 0.0836	0.704 ± 0.015
m1 = 0.104	0.68 ± 0.016
m1 = 0.2111	0.57 ± 0.022
m1 = 0.3124	0.496 ± 0.025
m1 = 0.4076	0.411 ± 0.029
m1 = 0.5148	0.354 ± 0.032
m1 = 0.8269	0.297 ± 0.035
m1 = 1.23	0.237 ± 0.038
m1 = 1.577	0.211 ± 0.039
m1 = 2.059	0.18 ± 0.041
m1 = 2.455	0.161 ± 0.042
m1 = 2.8	0.15 ± 0.043

CCC[n+]1cccc(C)c1.O=S(=O)([N-]S(=O)(=O)C(F)(F)F)C(F)(F)F + CCCO
Details	osmotic coefficient
m1 = 0.0279	0.943 ± 0.003
m1 = 0.0456	0.826 ± 0.009
m1 = 0.0782	0.699 ± 0.015
m1 = 0.0966	0.651 ± 0.017
m1 = 0.2052	0.553 ± 0.022
m1 = 0.2936	0.504 ± 0.025
m1 = 0.3902	0.435 ± 0.028
m1 = 0.5073	0.363 ± 0.032
m1 = 0.8376	0.294 ± 0.035
m1 = 1.261	0.242 ± 0.038
m1 = 1.656	0.217 ± 0.039
m1 = 2.045	0.196 ± 0.04
m1 = 2.425	0.175 ± 0.041
m1 = 2.825	0.165 ± 0.042
m1 = 3.31	0.159 ± 0.042

— the NIST ThermoML archive (doi:10.1016/j.tca.2012.09.009)
